One molecule from patent publication US9102636B2, “Analgesic compounds, compositions, and uses thereof” (Galleon Pharmaceuticals, Inc., priority 2010, dated 2015) can be followed below.

Values joined by “and” are separate entries in the source; they are usually repeats but may differ in a detail not shown here. Equal entries are not always repeated. “Also recorded” adds a separate entry of the source.

Series [1] concerns PC12 cells. Kind of series: Inhibition of peroxynitrite (SIN-1) mediated cytotoxicity, ATPlite. The note with it: Rattus norvegicus, PC-12, SIN-1 overnight, average of two plates. Format: cell-based. An excerpt: ATPlite is an Adenosine TriPhosphate monitoring system based on firefly luciferase. ATP monitoring was used as a measure of PC12 cell viability, as it is present in all metabolically active cells and its concentration very rapidly declines as cells undergo necrosis and apoptosis. ATPlite is based upon the production of light given off during the reaction of ATP & D-Luciferin in the presence of Luciferase. The emitted light is proportional to the ATP concentration. Compounds of the invention were assessed for their ability to inhibit SIN-1 induced cell toxicity. Inhibitory concentrations, IC50 values, were calculated by testing compounds of the invention at various concentrations and averaging the IC50 of two plates.
All cell work was carried out under the cell culture hood in a sterile environment. […] The cells were counted in the 4 large corner quadrants of the hemacytometer under the inverted microscope at 10× and the average of the 4 quadrants was calculated. Blue cells were not counted as these cells represented non-viable cells. The number of cells present in 1 mL of media was determined using the following equation: cells/mL=(# cells counted/# squares counted)×10^4×dilution factor. […]
On Day 3, 10.25 ml of ATPlite buffer was added to 1 vial of lyophilized substrate solution (ATPlite 1 step luminescence ATP detection Assay system (Perkin Elmer, #6016731)). […]
In general terms: In ATP-based viability assays light output follows the ATP content of the culture.

The subject of series [2] is Carrageenan-induced edema. Kind of series: Carrageenan-induced edema (paw volume). Format: in vivo, rat. As to the method:
The effect of Compound 2 in the rat carrageenan model of acute inflammatory pain was evaluated. The intraplantar carrageenan model of acute inflammatory pain in the rat results in behaviors similar to that observed in patients and has been widely used to assess novel pharmacological treatments (Whiteside et al., 2005, J. Pharmacol. Exp. Ther. 314:1234-1240). The objective of this study was to evaluate the ability of Compound 2 to reverse or prevent development of thermal hyperalgesia and edema in the rat carrageenan model of acute inflammatory pain. The positive control was indomethacin (Sigma, St. Louis), and the negative control was vehicle (0.5% methyl cellulose). […] The Hargreaves apparatus was obtained from Ugo Basile, Italy, and the lamba-carrageenan was obtained from Sigma, St. Louis. For this assay, paw withdrawal latency to a thermal stimulus was assessed using a radiant heat source (Ugo Basile, Italy) aimed at the plantar surface of the left hind paw (Hargreaves test). […] Paw volume was measured by displacement of water and assuming a tissue density equal to that of water. Baseline latencies were taken prior to carrageenan administration and re-assessed 4 h later. […] Indomethacin (positive control, 30 mg/kg p.o.) was administered prior to carrageenan and behavior assessed 4 hrs post-carrageenan. […] After induction of anesthesia, the injection site was prepared in a sterile manner and 50 μl of a 2% Jamba-carrageenan was injected. After injection, animals were weighed and allowed to recover before being returned to their home cages. Statistical significance was determined on untransformed data using a two-way analysis of variance (Graphpad Prism, NC). Significant main effects were analyzed further by subsequent Bonferronni post-hoc test. The level of significance was set at p<0.05. Data are shown as mean±S.E.M. (with an asterisk to denote significance as compared to vehicle treated controls).
(In general: In the carrageenan paw model, swelling and tenderness develop within hours.)

Series [3] relates to ataxia (rotarod). Kind of series: Accelerating rotarod assay of ataxia (latency to fall). Format: in vivo, rat. The note with it: for Latency to fall: maximum 300 seconds, individual animals. On the procedure: Compound 2 was evaluated in a rat accelerating rotarod model of ataxia. Ataxia is a common clinical problem with CNS-active compounds and can often confound interpretation of efficacy in preclinical pain models. The rotarod assay of ataxia has been widely used to assess the side-effect liability of novel pharmacological treatments (Jones & Roberts, 1968, J. Pharm. […] The positive control was haloperidol (Sigma, St. […] Male Sprague-Dawley Rats (Harlan, Ill.) were 250-300 g at time of dosing. Rotarod was obtained from IITC, CA. To examine the potential effects of Compound 2 on motor performance, rats were tested on an accelerating rotarod (IITC, Ca). […] Rats received two timed training trials (averaged to give the reported baseline) on the first day, then 24 hr later rats were administered Compound 2 (30, 100 and 300 mg/kg, p.o.), haloperidol (3 mg/kg, p.o.), the positive control, or vehicle. […] Statistical significance was determined on untransformed data using a two-way analysis of variance (Graphpad Prism, NC). Significant main effects were analyzed further by subsequent Bonferronni post-hoc test. The level of significance was set at p<0.05. Data are shown as mean±S.E.M. (with an asterisk to denote significance as compared to vehicle treated controls).
For orientation: The rotarod test checks motor coordination on a turning rod.

As a reminder, the IC50 is the concentration that inhibits the measured activity by half. Molecule `CC1(C)SC(Nc2ccccc2O)=N[C@@H]1C(=O)O` [Compound 2, (R)-2-(2-hydroxyphenylamino)-thiazoline-5,5-dimethyl-4-carboxylic acid] showed an IC50 in series [1] of 3.7 µM. For the same molecule, the “Paw volume” value is 2.6 mL and 2.9 mL and 2.5 mL and 2.7 mL in series [2] (1 hr post-drug, compound 2 10 mg/kg p.o. 3 hrs after carrageenan (curative), FIG. 21B, 10 mg/kg); 2.4 mL and 2.6 mL and 2.5 mL and 2.9 mL and 2.3 mL in series [2] (1 hr post-drug, compound 2 30 mg/kg p.o. 3 hrs after carrageenan (curative), FIG. 21B, 30 mg/kg); 1.7 mL (2×) and 1.8 mL (3×) and 1.6 mL in series [2] (Pre-Cg, compound 2 10 mg/kg group, individual rats, FIG. 21B, 10 mg/kg); 1.6 mL (3×) and 1.7 mL (2×) and 1.8 mL and 1.5 mL in series [2] (Pre-Cg, compound 2 30 mg/kg group, individual rats, FIG. 21B, 30 mg/kg); 3.3 mL and 2.8 mL (2×) and 3.2 mL and 3.1 mL and 2.9 mL in series [2] (compound 2 10 mg/kg p.o. preemptive, 4 hr post-drug, individual animals, 10 mg/kg); 1.7 mL (2×) and 1.6 mL (3×) and 1.5 mL in series [2] (compound 2 10 mg/kg p.o. preemptive, Pre-Cg, individual animals, 10 mg/kg). The “Paw volume” value was 2.9 mL and 2.7 mL (4×) and 2.8 mL in series [2] (compound 2 30 mg/kg p.o. preemptive, 4 hr post-drug, individual animals, 30 mg/kg); 1.7 mL (3×) and 1.6 mL (2×) and 1.8 mL in series [2] (compound 2 30 mg/kg p.o. preemptive, Pre-Cg, individual animals, 30 mg/kg). For the same molecule, the “carrageenan-induced edema, preemptive (finding in words)” value in series [2] (rat, 10 and 30 mg/kg p.o. 15 minutes prior to carrageenan) is reported as “did not significantly prevent”. Moreover, the “carrageenan-induced edema, curative (finding in words)” value in series [2] (rat, p.o. 3 hours post-carrageenan, significant at 30 mg/kg, 30 mg/kg) is “significantly reversed edema”. Also, the “Latency to fall” value in series [3] (compound 2 30 mg/kg p.o., Baseline, 30 mg/kg) was 70 sec and 108.5 sec and 72 sec and 68 sec (2×) and 52 sec and 49 sec and 60.5 sec and 48.5 sec and 47.5 sec (2×) and 97 sec; in series [3] (compound 2 30 mg/kg p.o., Post-Drug (1 hr), 30 mg/kg), 39 s and 99 s and 72 s and 94 s and 66 s and 81 s and 133 s and 120 s and 56 s and 115 s and 50 s and 70 s; in series [3] (compound 2 100 mg/kg p.o., Baseline, 100 mg/kg) it was 43.5 s and 75.5 s and 55 s and 63 s and 60.5 s and 73.5 s and 73 s and 72 s and 54.5 s and 54 s and 46.5 s and 53 s; in series [3] (compound 2 100 mg/kg p.o., Post-Drug (1 hr), 100 mg/kg), 86 sec and 64 sec and 45 sec (2×) and 111 sec and 91 sec and 221 sec and 72 sec (2×) and 66 sec and 20 sec and 199 sec; in series [3] (compound 2 300 mg/kg p.o., Baseline, 300 mg/kg), 84 sec and 76.5 sec and 57 sec and 86.5 sec (2×) and 81.5 sec and 79 sec and 71.5 sec and 61 sec and 97.5 sec and 89 sec; in series [3] (compound 2 300 mg/kg p.o., Post-Drug (1 hr), 300 mg/kg), 184 sec (2×) and 55 sec (2×) and 112 sec and 105 sec and 124 sec and 175 sec and 43 sec and 131 sec and 78 sec. Besides, in series [3] (rat, 30, 100 and 300 mg/kg p.o., 1 hr post-dosing), the “latency to fall, accelerating rotarod (finding in words)” value was “did not significantly decrease latency to fall; also recorded: did not significantly reduce latency to fall”.
